Laboratory results taken from US5087620A, “Controlled dermal penetration enhancement using imidazoles” (Bristol-Myers Squibb Co., priority 1990, dated 1992).

Experiments:
forearms of humans = conditions: general rule; depends on vehicle and concentration; cited from earlier work
[1] = In vitro skin penetration study, excised human skin, Franz diffusion cells (Example 1A-1C); assay type: in vitro ADME
Method: Normal excised human skin samples obtained from breast reduction were used. Appropriate size specimens were frozen on the microtome with carbon dioxide and sectioned to a layer around 200 micrometers thick and stored in normal saline at 5° C. The skin sections were mounted on 9 mm inside diameter flat-top Franz diffusion cells. The diffusional cross-sectional area of the skin was 0.636 cm^2. A 50 microliter sample of a test formulation was placed on the skin in the donor compartment and the receiver compartment was filled with about 5 ml of normal saline (with pH adjusted to 4 with citric acid) and was well stirred. Water at 37.4° C. was circulated throughout the water jacket of the diffusion cell. A 100 microliter sample was withdrawn from the receiver compartment at appropriate intervals and analyzed for drug content by HPLC. The receptor fluid was replenished with normal saline after each withdrawal. All the receptor fluid and replenished fluid were thoroughly degassed before use.

volar forearms [2] = assay: Vasoconstriction (skin blanching) assay, double-blind within subject study (Example 2); assay type: in vivo, human; conditions: inclusion of dermal penetration controlling amount of SNO3, PG and IPM
Method: (§1) Equal amounts of each coded test medication (approximately 10 mg) were applied to 2cm^2 sites on the volar forearms and left in place, unoccluded, for 8 hours. Vasoconstriction was assessed by grading the degree of blanching on a 4-point scale (none, mild, moderate, marked) at each test site at 4, 8, 10, 12 and 24 hours after application. Statistical analysis of the area under the curve (AUC) was conducted by ranking the AUC scores within each subject and performing an analysis of variance on the ranks (Friedman Test).

volar forearms [3] = assay: Vasoconstriction assay of Examples 3, 4 and 5 versus DIPROSONE and KENALOG (Example 6); assay type: in vivo, human
Method: as §1

| SMILES | topical potency class (vasoconstriction assay) (forearms of humans) | further results |
| --- | --- | --- |
| CC1(C)O[C@@H]2C[C@H]3[C@@H]4CCC5=CC(=O)C=C[C@]5(C)[C@@]4(F)[C@@H](O)C[C@]3(C)[C@]2(C(=O)CO)O1 [TACA, triamcinolone acetonide] | mid-potency | penetration through the entire skin thickness (extent) [1]: only a small amount; potency class of TACA with SNO3, PG and IPM (volar forearms [2]): high potency steroid; potency class of TACA with SNO3, PG and IPM (volar forearms [3]; inclusion of SNO3, PG and IPM): high potency; TACA concentration needed for high potency in comparison to Kenalog cream (0.1% TACA) (volar forearms [3]; with SNO3, PG and IPM): three fold lower |
| C[C@H]1C[C@H]2[C@@H]3CCC4=CC(=O)C=C[C@]4(C)[C@@]3(F)[C@@H](O)C[C@]2(C)[C@@]1(O)C(=O)CO [betamethasone] | high potency |  |
| C[C@H]1C[C@H]2[C@@H]3CCC4=CC(=O)C=C[C@]4(C)[C@@]3(F)[C@@H](O)C[C@]2(C)[C@@]1(O)C(=O)CCl [clobetasol] | ultra high potency |  |
| C[C@]12CCC(=O)C=C1CC[C@@H]1[C@@H]2[C@@H](O)C[C@@]2(C)[C@H]1CC[C@]2(O)C(=O)CO [hydrocortisone] | low potency |  |
| C[C@H]1C[C@@H]2[C@H]([C@@H](O)C[C@@]3(C)[C@H]2CC[C@]3(O)C(=O)CO)[C@@]2(C)C=CC(=O)C=C12 [methylprednisolone] | low potency |  |
| C[C@]12C=CC(=O)C=C1CC[C@@H]1[C@@H]2[C@@H](O)C[C@@]2(C)[C@H]1CC[C@]2(O)C(=O)CO [prednisolone] | low potency |  |
